Results on 13 compounds are retold here after US9388162B2, “Substituted morphinans and the use thereof” (Purdue Pharma L.P., priority 2012, dated 2016).

Test [1] deals with μ-opioid receptors (Homo sapiens (Human), UniProt P35372). As to the kind of experiment: μ-opioid receptor [35S]GTPγS functional assay, U-2 OS cells. The format is biochemical. The following applies: μ GTP; for EC50: read-out: Activity Response μ EC50 (nM) [mean ± SEM]; for Emax: relative to DAMGO, read-out: Activity Response μ Emax (%). The procedure:
[^35S]GTPγS functional assays were conducted using freshly thawed μ-receptor membranes prepared from a cell line expressing recombinant μ opioid receptor in a HEK-293, CHO or U-2 OS cell background or purchased from a commercial source (Perkin Elmer, Shelton, Conn.; or DiscovRx, Fremont, Calif.). Assay reactions were prepared by sequentially adding the following reagents to binding buffer (100 mM NaCl, 10 mM MgCl2, 20 mM HEPES, pH 7.4) on ice (final concentrations indicated): membrane protein (0.026 mg/mL), saponin ([…]), GDP ([…]) and [^35S]GTPγS (0.20 nM; Perkin Elmer, Shelton, Conn.). The prepared membrane solution (190 μl/well) was transferred to 96-shallow well polypropylene plates containing 10 μl of 20× concentrated stock solutions of the agonist [D-Ala^2, N-methyl-Phe^4 Gly-ol^5]-enkephalin (DAMGO) prepared in dimethyl sulfoxide (DMSO). Plates were incubated for 30 min at about 25° C. with shaking. Reactions were terminated by rapid filtration onto 96-well Unifilter GF/B filter plates (Perkin Elmer, Shelton, Conn.) using a 96-well tissue harvester (Perkin Elmer, Shelton, Conn.) followed by three filtration washes with 200 μl of ice-cold wash buffer (10 mM NaH2PO4, 10 mM Na2HPO4, pH 7.4). Filter plates were subsequently dried at 50° C. for 2-3 hours. BetaScint scintillation cocktail (Perkin Elmer, Shelton, Conn.) was added (50 μl/well) and plates were counted using a Packard Top-Count for 1 min/well. Data were analyzed using the sigmoidal dose-response curve fitting functions in GraphPad PRISM v. 3.0, or an in-house function for non-linear, sigmoidal dose-response curve-fitting.
μ GTP EC50 is the concentration of a compound providing 50% of the maximal response for the compound at a μ-opioid receptor.
μ GTP Emax (%) is the maximal effect elicited by a compound relative to the effect elicited by DAMGO, a standard μ agonist. Generally, the μ GTP Emax (%) value measures the efficacy of a compound to treat or prevent pain or other Conditions.
The following tables provide results on the efficacy of binding and activity response of exemplified Compounds of the Invention at the μ- and κ-opioid receptors. In TABLE 3, binding affinity of certain Compounds of the Invention to the μ- and κ-opioid receptors was determined as described above. In TABLE 4, activity response of certain Compounds of the Invention to the μ- and κ-opioid receptors was determined as described above for functional assays using HEK-293 cells. In TABLE 5, activity response of certain Compounds of the Invention to the μ- and κ-opioid receptors was determined as described above using U-2 OS cells.
Background: Binding of GTPγS marks nucleotide exchange on a G protein.

Test [2] deals with κ opioid receptor (Homo sapiens (Human), UniProt P41145). As to the kind of experiment: κ-opioid receptor [35S]GTPγS functional assay, U-2 OS cells. The following applies: κ GTP; for EC50: read-out: Activity Response κ EC50 (nM) [mean ± SEM]; for Emax: relative to U69,593, read-out: Activity Response κ Emax (%). The format is biochemical. How it is done:
Membranes from HEK-293 cells, CHO or U-2 OS cells expressing the recombinant human kappa opioid receptor (κ) were prepared by lysing cells in ice cold hypotonic buffer (2.5 mM MgCl2, 50 mM HEPES, pH 7.4) (10 mL/10 cm dish) followed by homogenization with a tissue grinder/Teflon pestle. Membranes were collected by centrifugation at 30,000×g for 15 min at 4° C. and pellets were resuspended in hypotonic buffer to a final concentration of 1-3 mg/mL. Protein concentrations were determined using the BioRad protein assay reagent with bovine serum albumen as standard. Aliquots of κ receptor membranes were stored at −80° C.
Functional [^35S]GTPγS binding assays were conducted as follows. κ opioid receptor membrane solution was prepared by sequentially adding final concentrations of 0.026 μg/μl κ membrane protein (in-house), 10 μg/mL saponin, 3 μM GDP and 0.20 nM [^35S]GTPγS to binding buffer (100 mM NaCl, 10 mM MgCl2, 20 mM HEPES, pH 7.4) on ice. The prepared membrane solution (190 μl/well) was transferred to 96-shallow well polypropylene plates containing 10 μl of 20× concentrated stock solutions of agonist prepared in DMSO. Plates were incubated for 30 min at a temperature of about 25° C. with shaking. Reactions were terminated by rapid filtration onto 96-well Unifilter GF/B filter plates (Perkin Elmer, Shelton, Conn.) using a 96-well tissue harvester (Packard) and followed by three filtration washes with 200 μl ice-cold binding buffer (10 mM NaH2PO4, 10 mM Na2HPO4, pH 7.4). Filter plates were subsequently dried at 50° C. for 2-3 hours. Fifty μl/well scintillation cocktail (Perkin Elmer, Shelton, Conn.) was added and plates were counted in a Packard Top-Count for 1 min/well.
κ GTP EC50 is the concentration of a compound providing 50% of the maximal response for the compound at a κ receptor.
κ GTP Emax (%) is the maximal effect elicited by a compound relative to the effect elicited by U69,593.
In TABLE 3, binding affinity of certain Compounds of the Invention to the μ- and κ-opioid receptors was determined as described above. In TABLE 4, activity response of certain Compounds of the Invention to the μ- and κ-opioid receptors was determined as described above for functional assays using HEK-293 cells. In TABLE 5, activity response of certain Compounds of the Invention to the μ- and κ-opioid receptors was determined as described above using U-2 OS cells.

As to `CN1CC[C@]23CC(=O)[C@@H](CC(=O)O)C[C@@]2(O)[C@H]1Cc1ccc(O)cc13` [Compound 61, 2-((4bR,7R,8aS,9R)-3,8a-dihydroxy-11-methyl-6-oxo-6,7,8,8a,9,10-hexahydro-5H-9,4b-(epiminoethano)phenanthren-7-yl)acetic acid], the figures for the 50% effective concentration (EC50) in test [1] and in test [2] were 466 ± 81 nM and 963 ± 83 nM, respectively. For the same compound, the Emax in test [1] amounted to 77.3 ± 2.03%; in test [2] it was 90 ± 10%.

Consider `COc1ccc2c(c1)[C@]13CCN(CC4CC4)[C@H](C2)[C@]1(O)C[C@H](NC(=O)C(C)C)C(=O)C3` [Compound 26, N-((4bR,7S,8aS,9R)-11-(cyclopropylmethyl)-8a-hydroxy-3-methoxy-6-oxo-6,7,8,8a,9,10-hexahydro-5H-9,4b-(epiminoethano)phenanthren-7-yl)isobutyramide], for which, in test [1], the EC50 is 7110 ± 633 nM and the Emax is 31 ± 2.08%. Also, in test [2], the EC50 was determined as 7210 ± 438 nM and the maximal effect (Emax) is 104 ± 2.52%.

As for `CC(C)CCC(=O)N[C@H]1C[C@@]2(O)[C@H]3Cc4ccc(O)cc4[C@@]2(CCN3CC2CC2)CC1=O` [Compound 30, N-((4bR,7S,8aS,9R)-11-(cyclopropylmethyl)-3,8a-dihydroxy-6-oxo-6,7,8,8a,9,10-hexahydro-5H-9,4b-(epiminoethano)phenanthren-7-yl)-4-methylpentanamide], in test [1], the concentration giving a half-maximal response (EC50) turned out to be 9.61 ± 0.83 nM and the Emax is 51 ± 2.65%. In test [2], the half-maximal effective concentration (EC50) worked out at 1.61 ± 0.12 nM and the Emax was determined as 97.7 ± 3.18%.

As for `COc1ccc2c(c1)[C@]13CCN(CC4CC4)[C@H](C2)[C@]1(O)C[C@H](O)C(=O)C3` [Compound 25, (4bR,7S,8aS,9R)-11-(cyclopropylmethyl)-7,8a-dihydroxy-3-methoxy-8,8a,9,10-tetrahydro-5H-9,4b-(epiminoethano)phenanthren-6(7H)-one], in test [1], the concentration giving a half-maximal response (EC50) worked out at 578 ± 91.8 nM and the Emax worked out at 36 ± 3.51%. For the same compound, in test [2], the EC50 was 876 ± 18.8 nM and the Emax was found to be 106 ± 3.28%.

On to `CC(C)(C)C(=O)N[C@H]1C[C@@]2(O)[C@H]3Cc4ccc(O)cc4[C@@]2(CCN3CC2CC2)CC1=O` [Compound 32, N-((4bR,7S,8aS,9R)-11-(cyclopropylmethyl)-3,8a-dihydroxy-6-oxo-6,7,8,8a,9,10-hexahydro-5H-9,4b-(epiminoethano)phenanthren-7-yl)pivalamide], for which, in test [1], the EC50 is 18.6 ± 8.05 nM and the Emax amounted to 11.3 ± 0.88%. In test [2], the EC50 turned out to be 17.5 ± 2.66 nM and the Emax was determined as 113 ± 3.61%.

On to `O=C1C[C@]23CCN(CC4CC4)[C@H](Cc4ccc(O)cc42)[C@]3(O)C[C@@H]1CC1CCCCC1` [Compound 70, (4bR,7S,8aS,9R)-7-(cyclohexylmethyl)-11-(cyclopropylmethyl)-3,8a-dihydroxy-8,8a,9,10-tetrahydro-5H-9,4b-(epiminoethano)phenanthren-6(7H)-one], for which the EC50 in test [1] is greater than 200000 nM; in test [2], 4.01 ± 0.47 nM. Further, the Emax in test [1] is 3.5%; in test [2], 106 ± 3.8%.

As for `O=C1C[C@]23CCN(CC4CC4)[C@H](Cc4ccc(O)cc42)[C@]3(O)C[C@@H]1Cc1ccccc1` [Compound 71, (4bR,7S,8aS,9R)-7-benzyl-11-(cyclopropylmethyl)-3,8a-dihydroxy-8,8a,9,10-tetrahydro-5H-9,4b-(epiminoethano)phenanthren-6(7H)-one], in test [1], the EC50 was 6.76 ± 1.73 nM and the Emax came to 17.7 ± 0.88%. Also, in test [2], the EC50 was found to be 5.6 ± 0.72 nM and the Emax turned out to be 109 ± 5.45%.

`CC(C)(C)C[C@H]1C[C@@]2(O)[C@H]3Cc4ccc(O)cc4[C@@]2(CCN3CC2CC2)CC1=O` [Compound 68, (4bR,7S,8aS,9R)-11-(cyclopropylmethyl)-3,8a-dihydroxy-7-neopentyl-8,8a,9,10-tetrahydro-5H-9,4b-(epiminoethano)phenanthren-6(7H)-one]: the half-maximal effective concentration (EC50) is greater than 200000 nM in test [1] and 20.5 ± 0.4 nM in test [2]. For the same compound, the Emax came out at 3% in test [1] and 69 ± 3.21% in test [2].

Turning to `CC(=O)N[C@H]1C[C@@]2(O)[C@H]3Cc4ccc(O)cc4[C@@]2(CCN3CC2CC2)CC1=O` [Compound 28, N-((4bR,7S,8aS,9R)-11-(cyclopropylmethyl)-3,8a-dihydroxy-6-oxo-6,7,8,8a,9,10-hexahydro-5H-9,4b-(epiminoethano)phenanthren-7-yl)acetamide], the 50% effective concentration (EC50) in test [1] is greater than 200000 nM; in test [2], 27.1 ± 3.29 nM. Moreover, the Emax in test [1] was 2.5%; in test [2], 86.7 ± 2.4%.

On to `C[C@H](NC(=O)C[C@H]1C[C@@]2(O)[C@H]3Cc4ccc(O)cc4[C@@]2(CCN3C)CC1=O)C(=O)O` [Compound 75, (2-((4bR,7R,8aS,9R)-3,8a-dihydroxy-11-methyl-6-oxo-6,7,8,8a,9,10-hexahydro-5H-9,4b-(epiminoethano)phenanthren-7-yl)acetyl)-L-alanine], for which, in test [1], the EC50 is 1150 ± 103 nM and the Emax stood at 95 ± 1.53%. Further, in test [2], the EC50 came out at 16600 ± 1190 nM and the maximal effect (Emax) was 66.7 ± 1.2%.

Consider `CCCC[C@H]1C[C@@]2(O)[C@H]3Cc4ccc(O)cc4[C@@]2(CCN3CC2CC2)CC1=O` [Compound 67, (4bR,7S,8aS,9R)-7-butyl-11-(cyclopropylmethyl)-3,8a-dihydroxy-8,8a,9,10-tetrahydro-5H-9,4b-(epiminoethano)phenanthren-6(7H)-one], for which the concentration giving a half-maximal response (EC50) in test [1] was greater than 200000 nM; in test [2], 3 ± 0.12 nM. Also, the Emax in test [1] worked out at 2%; in test [2] it was 101 ± 1.73%.

`COc1ccc2c(c1)[C@]13CCN(CC4CC4)[C@H](C2)[C@]1(O)C/C(=C\CC(C)C)C(=O)C3` [Compound 62, (4bR,8aS,9R,E)-11-(cyclopropylmethyl)-8a-hydroxy-3-methoxy-7-(3-methylbutylidene)-8,8a,9,10-tetrahydro-5H-9,4b-(epiminoethano)phenanthren-6(7H)-one]: in test [1], the half-maximal effective concentration (EC50) was greater than 200000 nM and the Emax was 27.5%. In test [2], the EC50 was 3070 ± 233 nM and the Emax came out at 62.7 ± 4.37%.

`O=C1C[C@]23CCN(CC4CC4)[C@H](Cc4ccc(OCc5ccccc5)cc42)[C@]3(O)C[C@@H]1CCO` [Compound 58, (4bR,7S,8aS,9R)-3-(benzyloxy)-11-(cyclopropylmethyl)-8a-hydroxy-7-(2-hydroxyethyl)-8,8a,9,10-tetrahydro-5H-9,4b-(epiminoethano)phenanthren-6(7H)-one]: in test [1], the EC50 was 787 ± 242 nM and the Emax came out at 43.7 ± 3.93%. For the same compound, in test [2], the EC50 is 839 ± 9.9 nM and the maximum response (Emax) worked out at 96 ± 6.35%.

The term EC50 denotes the concentration at which the effect is half-maximal. One may read the Emax as the greatest response seen or fitted, relative to the assay's reference.
